# Like-named read-outs stand apart in the source and are kept apart here.
# Columns and labels:
# Myzus persicae [1] = assay: Myzus persicae - spray test (MYZUPE), comparison with prior art; assay type: in vivo; settings: Myzus persicae, 120 h, 5 dat, read-out: % efficacy; for Emax at 100 g/ha: 100 g/ha (g of ai/ha)
# Experimental: Myzus persicae—Spray Test (MYZUPE)
# (§1) To produce a suitable active ingredient formulation, 1 part by weight of active ingredient is dissolved with the specified parts by weight of solvent and made up to the desired concentration with water containing an emulsifier concentration of 1000 ppm. To produce further test concentrations, the formulation is diluted with emulsifier-containing water.
# (§2) Discs of Chinese cabbage leaves (Brassica pekinensis) infested by all stages of the green peach aphid (Myzus persicae) are sprayed with an active ingredient formulation of the desired concentration.
# (§3) After the desired period of time, the efficacy in % is determined. 100% means that all the aphids have been killed; 0% means that no aphids have been killed.
# Aphis gossypii = Aphis gossypii - spray test (APHIGO S), cotton plants; assay type: in vivo; settings: 144 h, 6 dat, read-out: % efficacy
# Experimental: Aphis gossypii—Spray Test (APHIGO S)
# as §1, with “water. If the addition of ammonium salts or/and penetrants is required, these are each added in a concentration of 1000 ppm to the formulation solution.” for “water.”
# Cotton plants (Gossypium hirsutum) heavily infested by the cotton aphid (Aphis gossypii) are sprayed with an active ingredient formulation of the desired concentration.
# After the desired time, the kill in % is determined. 100% means that all the aphids have been killed; 0% means that no aphids have been killed.
# Myzus persicae [2] = assay: Myzus persicae - drench test (MYZUPE D), savoy cabbage; assay type: in vivo; settings: Myzus persicae, soil, 240 h, 10 dat, read-out: % efficacy
# Experimental: Myzus persicae—Drench Test (MYZUPE D)
# To produce a suitable active ingredient formulation, 1 part by weight of active ingredient is mixed with the specified amounts of solvent and emulsifier, and the concentrate is diluted with water to the desired concentration, it being necessary to include the volume of soil which is drenched in the calculation. It should be ensured that a concentration of 40 ppm of emulsifier in the soil is not exceeded. To produce further test concentrations, water is used for dilution.
# Savoy cabbage (Brassica oleracea) in pots with soil and infested by all stages of the green peach aphid (Myzus persicae) is watered with an active ingredient formulation of the desired concentration.
# as §3
# Myzus persicae [3] = assay: Myzus persicae - spray test; assay type: in vivo; settings: for pest or weed control at 500 g/ha: Myzus persicae, foliar, 120 h, read-out: efficacy (aphids killed)
# Experimental: Myzus persicae—Spray Test
# as §1, §2
# (§4) After 5 days, the efficacy in % is determined. 100% means that all the aphids have been killed; 0% means that no aphids have been killed.
# Myzus persicae [4] = assay: Myzus persicae - oral test (MYZUPE O), comparison with prior art; assay type: in vivo; settings: Myzus persicae, po, 120 h, 5 dat, read-out: % efficacy
# Experimental: Myzus persicae—Oral Test (MYZUPE O)
# (§5) To produce a suitable active ingredient formulation, 1 part by weight of active ingredient is dissolved with the specified parts by weight of solvent and made up to the desired concentration with water.
# (§6) 50 μl of the active ingredient formulation are transferred into microtitre plates and made up to a final volume of 200 μl with 150 μl of IPL41 insect medium (33%+15% sugar). Subsequently, the plates are sealed with parafilm, which a mixed population of green peach aphids (Myzus persicae) within a second microtitre plate is able to puncture and imbibe the solution.
# as §3
# Boophilus microplus = Boophilus microplus - injection test; assay type: in vivo; settings: 20 μg/animal, injection into engorged adult female cattle ticks, after 7 days
# Experimental: Boophilus microplus—Injection Test
# Solvent: Dimethyl Sulphoxide
# To produce a suitable active ingredient formulation, 10 mg of active ingredient are mixed with 0.5 ml of solvent and the concentrate is diluted to the desired concentration with solvent.
# 1 μl of the active ingredient solution is injected into the abdomen of 5 engorged adult female cattle ticks (Boophilus microplus). The animals are transferred into dishes and kept in a climate-controlled room.
# Efficacy is assessed after 7 days by laying of fertile eggs. Eggs which are not visibly fertile are stored in a climate-controlled cabinet until the larvae hatch after about 42 days. An efficacy of 100% means that none of the ticks has laid any fertile eggs; 0% means that all the eggs are fertile.
# Myzus persicae [5] = assay: Myzus persicae - spray test (MYZUPE S), bell pepper plants; assay type: in vivo; settings: Myzus persicae, 144 h, 6 dat, read-out: % efficacy
# Experimental: Myzus persicae—Spray Test (MYZUPE S)
# as §1, with “water. If the addition of ammonium salts or/and penetrants is required, these are each added in a concentration of 1000 ppm to the formulation solution.” for “water.”
# Bell pepper plants (Capsicum annuum) severely infested with the green peach aphid (Myzus persicae) are treated by spraying with the active ingredient formulation in the desired concentration.
# After the desired time, the kill in % is determined. 100% means that all the animals have been killed; 0% means that no animals have been killed.
# [6] = log P by HPLC on reversed-phase (C18) columns, OECD Guideline 117; assay type: physicochemical; settings: for chromatographic logP: reversed-phase (C18) HPLC column
# Myzus persicae [7] = assay: Myzus persicae - oral test; assay type: in vivo; settings: for pest or weed control at 4 ppm: Myzus persicae, 120 h, read-out: efficacy (aphids killed)
# Experimental: as §5, §6, §4
# Tetranychus urticae = Tetranychus urticae - spray test, OP-resistant; assay type: in vivo; settings: 500 g/ha, bean leaf discs, after 6 days
# Experimental: Tetranychus urticae—Spray Test, OP-Resistant
# as §1
# Discs of bean leaves (Phaseolus vulgaris) infested with all stages of the greenhouse red spider mite (Tetranychus urticae) are sprayed with an active ingredient formulation of the desired concentration.
# After 6 days, the efficacy in % is determined. 100% means that all the spider mites have been killed; 0% means that no spider mites have been killed.
# Meloidogyne incognita = Meloidogyne incognita - test; assay type: in vivo; settings: 20 ppm, lettuce, after 14 days
# Experimental: Meloidogyne incognita—Test
# To produce a suitable active ingredient formulation, 1 part by weight of active ingredient is mixed with the stated amount of solvent and the concentrate is diluted to the desired concentration with water.
# Vessels are filled with sand, active ingredient solution, an egg/larvae suspension of the southern root-knot nematode (Meloidogyne incognita) and lettuce seeds. The lettuce seeds germinate and the plants develop. The galls develop on the roots.
# After 14 days, the nematicidal efficacy in % is determined by the formation of galls. 100% means that no galls were found; 0% means that the number of galls on the treated plants corresponds to the untreated control.
# [8] = 500 g/ha, Chinese cabbage leaf discs, after 5 days
# [9] = HPLC RP C18, acidic range pH 2.7, 0.1% formic acid/acetonitrile, read-out: logP[a]
# [10] = HPLC RP C18, neutral range pH 7.8, ammonium hydrogencarbonate/acetonitrile, read-out: logP[n]
# [11] = HPLC RP C18, acidic range pH 2.7, 0.1% formic acid/acetonitrile
# [12] = HPLC RP C18, neutral range pH 7.8, ammonium hydrogencarbonate/acetonitrile
Compound,pest or weed control at 500 g/ha (Myzus persicae [3]; [8]),efficacy (laying of fertile eggs) (Boophilus microplus),"chromatographic logP [6, 9]","chromatographic logP [6, 10]","pest or weed control at 4 ppm (Myzus persicae [7]; 4 ppm, oral, after 5 days)",efficacy (aphids killed) (Myzus persicae [3]; [8]),"logP[a] [6, 11]","logP[n] [6, 12]",efficacy (spider mites killed) (Tetranychus urticae),"efficacy (aphids killed) (Myzus persicae [7]; 4 ppm, oral, after 5 days)",also measured
CN(C(=O)c1cnc(C2CC(c3ccccc3)=NO2)n1C)c1cccnc1 (stereo not drawn) [Example I-1-7],90%,80%,1.45,1.72,100%,,,,,,Emax at 100 g/ha (Myzus persicae [1]): 90%; Emax at 500 g/ha (Myzus persicae [1]): 90%; Emax at 0.16 ppm (Aphis gossypii; 0.16 ppm): 50%; Emax at 0.8 ppm (Aphis gossypii): 100%; Emax at 0.16 ppm (Myzus persicae [2]): 80%; Emax at 0.8 ppm (Myzus persicae [2]): 90%; Emax at 0.8 ppm (Myzus persicae [4]): 100%; Emax at 4 ppm (Myzus persicae [4]): 100%; Emax at 0.16 ppm (Myzus persicae [5]): 95%; Emax at 0.8 ppm (Myzus persicae [5]): 100%
CCN(C(=O)c1cnc(C2CC(c3ccccc3)=NO2)n1C)c1cccnc1 (stereo not drawn) [Example I-1-8],,,,,,100%,1.74,1.92,90%,100%,
"CN(C(=O)c1cnc(C2CC(c3cccc(C#N)c3)=NO2)n1C)c1cccnc1 (stereo not drawn) [Example I-1-19, 2-[3-(3-Cyanophenyl)-4,5-dihydro-1,2-oxazol-5-yl]-N,1-dimethyl-N-(pyridin-3-yl)-1H-imidazole-5-carboxamide]",100%,95%,1.39,1.63,100%,,,,,,
CN(C(=O)c1cnc(C2CC(c3ccc(C(F)(F)F)cc3)=NO2)n1C)c1cccnc1 (stereo not drawn) [Example I-1-23],,,,,,90%,2.18,2.37,100%,100%,
CN(C(=O)c1cnc(C2CC(c3ccc([N+](=O)[O-])cc3)=NO2)n1C)c1cccnc1 (stereo not drawn) [Example I-1-24],,,,,,90%,,,100%,100%,logP[a] ([6]; pH 2.7): 1.64; logP[n] ([6]; pH 7.8): 1.84
CN(C(=O)c1cnc(C2CC(c3ccncc3)=NO2)n1C)c1cccnc1 (stereo not drawn) [Example I-1-28],,80%,,,,90%,0.54,1.11,,100%,
"CN(C(=O)c1cnc(C2=NOCCO2)n1C)c1cccnc1 [Example I-1-29, 2-(5,6-Dihydro-1,4,2-dioxazin-3-yl)-N,1-dimethyl-N-(pyridin-3-yl)-1H-imidazole-5-carboxamide]",,,0.45,0.76,,,,,,,pest or weed control at 500 g/ha (Myzus persicae [3]; in Brassica rapa): 100%; nematicidal efficacy (formation of galls) (Meloidogyne incognita): 100%; pest or weed control at 4 ppm (Myzus persicae [7]; po): 100%
CN(C(=O)c1cnc(C2CC(c3ccc(C(F)(F)F)cn3)=NO2)n1C)c1cccnc1 (stereo not drawn) [Example I-1-36],100%,,1.84,1.97,100%,,,,,,Emax at 4 g/ha (Myzus persicae [1]; 4 g/ha (g of ai/ha)): 100%; Emax at 20 g/ha (Myzus persicae [1]; 20 g/ha (g of ai/ha)): 90%; Emax at 100 g/ha (Myzus persicae [1]): 90%; Emax at 500 g/ha (Myzus persicae [1]): 100%; Emax at 0.8 ppm (Aphis gossypii): 97%; Emax at 0.16 ppm (Myzus persicae [2]): 70%; Emax at 0.8 ppm (Myzus persicae [2]): 80%; Emax at 0.8 ppm (Myzus persicae [4]): 100%; Emax at 4 ppm (Myzus persicae [4]): 100%; Emax at 0.16 ppm (Myzus persicae [5]): 90%; Emax at 0.8 ppm (Myzus persicae [5]): 99%

# Reference: patent US10660333B2, “Substituted 2-heterocyclylimidazolylcarboxamides as pesticides” (BAYER CROPSCIENCE AKTIENGESELLSCHAFT, priority 2016, dated 2020)
